Assays:
[1] = molecular target: T1, TRAF2 binding to the cytoplasmic domain of RANK (Homo sapiens, UniProt Q12933); assay: Competitive GST-pull down assay, TRAF2 binding to RANK cytoplasmic domain; details: 100 μM peptide, FLAG-TRAF2 293 cell extract (FIG. 4C)
T1 construct: expressed in transfected cells; host or cells: human 293 cells (TRAF lysate); The GST-RANK fusion was purified as previously described
T1 sequence (Q12933 1-501): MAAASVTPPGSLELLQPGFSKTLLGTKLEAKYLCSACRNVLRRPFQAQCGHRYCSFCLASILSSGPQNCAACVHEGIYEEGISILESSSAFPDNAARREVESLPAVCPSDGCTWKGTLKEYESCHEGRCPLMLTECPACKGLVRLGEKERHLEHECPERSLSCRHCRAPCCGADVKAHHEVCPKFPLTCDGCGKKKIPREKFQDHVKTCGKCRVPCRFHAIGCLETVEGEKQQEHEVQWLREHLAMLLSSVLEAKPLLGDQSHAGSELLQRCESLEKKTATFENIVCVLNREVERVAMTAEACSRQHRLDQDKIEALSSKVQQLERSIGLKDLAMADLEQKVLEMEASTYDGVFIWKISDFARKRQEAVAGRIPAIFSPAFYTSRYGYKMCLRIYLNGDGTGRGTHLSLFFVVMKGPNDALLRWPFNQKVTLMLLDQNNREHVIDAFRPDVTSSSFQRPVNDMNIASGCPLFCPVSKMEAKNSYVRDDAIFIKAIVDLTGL
Experimental: Cellular extracts from human 293 cells transfected with either FLAG-TRAF2, -TRAF5, or -TRAF6 were mixed with GST or GST-RANKed in the absence or presence of 100 μM of the indicated peptides. A GST-pull down assay was performed as described below. The bound TRAFs were visualized by immunoblotting with anti-FLAG antibodies.
Equivalent amounts of GST or GST-RANK cytoplasmic domain (GST-RANKed) fusion protein attached to 20 μl of glutathione agarose beads were mixed with lysates (50 μg) from 293 cells programmed to express the epitope-tagged TRAF protein and the indicated peptides in binding buffer (20 mM TRIS, pH 8, 150 mM NaCl, 1 mM DTT, 2 mM EDTA, and 0.1% NP-40) and allowed to rotate for 1 h at 4° C. The beads were collected by centrifugation, washed three times in binding buffer, and then washed once in low-salt buffer (20 mM TRIS, pH 8, 50 mM NaCl, and 1 mM DTT). Bound proteins were eluted with addition of SDS-sample buffer and boiled. The eluted proteins were subjected to 7.5% SDS-PAGE and western blot analysis was performed with anti-FLAG antibodies.
The cytoplasmic domain of RANK interacts with many TRAF molecules, including TRAF1, 2, 3, 5, and 6 (7-9, 11, 12). While TRAF1, 2, 3, and 5 interact with the c-terminal tail of receptor activator of NF-κB, TRAF6 interacts with a membrane proximal region of the cytoplasmic domain of the receptor activator of NF-κB. […]

p38 kinase = assay: RANKL-mediated p38 kinase activation in RAW264.7 cells (phospho-specific immunoblot); assay type: cell-based, mouse; details: peptide 6 h, RANKL 10 nM 15 min (FIG. 5C)
Experimental: (§1) FIG. 5B and FIG. 5C show inhibition of RANKL-mediated ERK and p38 activation by L-T6DP-1. Whole cell extracts (30 μg) from FIG. 5A were separated by 10% SDS-PAGE and electroblotted onto a nitrocellulose membrane. The membranes were first immunoblotted with the indicated phospho-specific antibody and then stripped and re-probed with the indicated antibodies as described below.
(§2) Stimulation of the receptor activator of NF-κB activates members of the MAPK family including JNK, ERK and p38 kinase. The ability of the TRAF6 binding peptides to inhibit the receptor activator of NF-κB ligand-induced JNK, ERK, and p38 kinase activation was examined in RAW264.7 cells. […] Similar to the results with JNK, only L-T6DP-1 was able to block ERK (FIG. 5B) and p38 kinase (FIG. 5C) activation induced by the receptor activator of NF-κB ligand in RAW264.7 cells.

[2] = system: RAW cells co-cultured with breast cancer cell lines; assay: Osteoclast differentiation of RAW cells induced by co-cultured breast cancer cells (T47D, MDA-MB-468); assay type: cell-based, mouse; details: co-culture, 100 μM peptide, 5 days, TRAP staining (FIG. 6A)
Experimental: FIG. 6A: Breast cancer cells (500/well) were plated in 24-well plates in the absence or presence of RAW cells (10000/well) and in the absence or presence of L-T6DP-1 or T6DP-1 (100 μM). After 5 days. the cells were fixed, stained for TRAP, and photographed with a 10× objective lens.
The number of MG-63 cells was critical for inducing RAW cells to differentiate into osteoclasts. These observations lead to a direct inverse relationship between the number of RAW cells to MG-63 cells which is required for the formation of osteoclasts. […] When grown on synthetic bone slides, the osteoclasts derived from the co-culture assays were able to cause bone resorption (FIG. 6B).
When L-T6DP-1 was added to these co-culture assays, the ability of the breast cancer cells to induce osteoclast differentiation of RAW cells was abolished, whereas T6DP-1 had no effect (FIG. 6A).

ERK = assay: RANKL-mediated ERK activation in RAW264.7 cells (phospho-specific immunoblot); assay type: cell-based, mouse; details: peptide 6 h, RANKL 10 nM 15 min (FIG. 5B)
Experimental: as §1, §2

JNK = assay: RANKL-mediated JNK activation in RAW264.7 cells (immune complex kinase assay, GST-Jun (1-79) substrate); assay type: cell-based, mouse; details: peptide 6 h, RANKL 10 nM 15 min (FIG. 5A)
Experimental: RAW264.7 cells were plated in 6-well plates and treated with the indicated peptides for 6 h, then treated with RANKL (10 nM) for 15 mm. Whole cell extracts were prepared and 30 μg of cell lysate was immunoprecipitated with anti-JNK1. In vitro kinase assays were performed using GST-Jun (1-79) as the substrate as described below.
Lysates were prepared from RAW cells stimulated with RANKL as indicated in the legends to the figures. Approximately 30 μg was then used for immunoprecipitation with indicated antibodies and protein A/G Sepharose beads for 1 h. Beads were collected by centrifugation, washed three times in lysis buffer, and then washed two times in low-salt buffer. JNK activity was analyzed using exogenous GST-Jun (1-79) as a substrate as previously described (8). Kinase activity was quantitated using a PhosphoImager and Imagequant Software (Molecular Dynamics, Sunnyvale, Calif.).
as §2

Substance: L-T6DP-1: Kaposi fibroblast growth factor signal sequence hydrophobic domain attached to murine RANK peptide containing the known TRAF6 binding domain (AAVALLPAVLLALLAPRKIPTEDEYTDRPSQPST; PEPTIDE Peptide L-T6Bp-1)
- TRAF2 binding to the cytoplasmic domain of RANK [1]: neither L-T6DP-1 nor L-T6DP-2 inhibited
- RANKL-induced p38 kinase activation (p38 kinase): able to block
- ability of breast cancer cells to induce osteoclast differentiation of RAW cells [2]: abolished
- RANKL-induced ERK activation (ERK): able to block
- RANKL-mediated JNK activation (JNK): capable of inhibiting
